Data from the NIST ThermoML archive (doi:10.1016/j.jct.2018.09.037).
Where “and” joins values, the source holds several entries; their conditions need not be identical. Equal values may be shown once. Numbers after ± are expanded uncertainties.

Experiments:
[1] = 100 kPa, Liquid, Electromagnetic levitation / mass taken directly, volume taken from sample image
[2] = xn = mol fraction of the nth substance listed; conditions: 100 kPa, Liquid, Electromagnetic levitation / mass taken directly, volume taken from sample image

[Cu] [copper]
[1]
Conditions	mass density [kg/m3]
1371 K	7884 ± 110
1385 K	7849 ± 110
1400 K	7875 ± 120
1432 K	7821 ± 120
1435 K	7819 ± 120
1437 K	7806 ± 120
1441 K	7827 ± 120
1456 K	7799 ± 120
1460 K	7828 ± 120
1461 K	7826 ± 120
1489 K	7770 ± 120
1507 K	7792 ± 120
1510 K	7755 ± 120
1578 K	7716 ± 120
1624 K	7673 ± 120
1625 K	7665 ± 120
1679 K	7628 ± 120

[Cu] [copper] + [Pd]
[2], x2 = 0
Conditions	mass density [kg/m3]
1371 K	7884 ± 110
1385 K	7849 ± 110
1400 K	7875 ± 120
1432 K	7821 ± 120
1435 K	7819 ± 120
1437 K	7806 ± 120
1441 K	7827 ± 120
1456 K	7799 ± 120
1460 K	7828 ± 120
1461 K	7826 ± 120
1489 K	7770 ± 120
1507 K	7792 ± 120
1510 K	7755 ± 120
1578 K	7716 ± 120
1624 K	7673 ± 120
1625 K	7665 ± 120
1679 K	7628 ± 120

[Pd] [palladium]
[1]
Conditions	mass density [kg/m3]
1790 K	10670 ± 170
1795 K	10672 ± 170
1796 K	10652 ± 170
1802 K	10686 ± 170
1809 K	10670 ± 170
1820 K	10677 ± 180
1831 K	10627 ± 180
1843 K	10654 ± 180
1856 K	10601 ± 180
1878 K	10558 ± 180
1889 K	10592 ± 180
1890 K	10575 ± 180
1917 K	10529 ± 180
1935 K	10478 ± 180
1951 K	10465 ± 180

[Pd] [palladium] + [Cu]
[2]
Conditions	mass density [kg/m3]
1374 K, x1 = 0.25	8847 ± 260
1421 K, x1 = 0.25	8805 ± 260
1469 K, x1 = 0.25	8762 ± 260
1523 K, x1 = 0.25	8711 ± 260
1523 K, x1 = 0.5	9468 ± 500
1532 K, x1 = 0.5	9456 ± 500
1562 K, x1 = 0.5	9412 ± 490
1590 K, x1 = 0.25	8663 ± 260
1617 K, x1 = 0.5	9371 ± 490
1653 K, x1 = 0.5	9329 ± 490
1654 K, x1 = 0.75	9987 ± 310
1662 K, x1 = 0.5	9329 ± 490
1678 K, x1 = 0.75	9964 ± 310
1685 K, x1 = 0.25	8540 ± 260
1708 K, x1 = 0.75	9936 ± 310
1718 K, x1 = 0.5	9281 ± 490
1753 K, x1 = 0.75	9886 ± 310
1766 K, x1 = 0.5	9221 ± 480
1784 K, x1 = 0.75	9853 ± 300
1790 K, x1 = 1	10670 ± 170
1795 K, x1 = 1	10672 ± 170
1796 K, x1 = 1	10652 ± 170
1802 K, x1 = 1	10686 ± 170
1805 K, x1 = 0.5	9118 ± 480
1809 K, x1 = 1	10670 ± 170
1820 K, x1 = 1	10677 ± 180
1822 K, x1 = 0.75	9805 ± 300
1831 K, x1 = 1	10627 ± 180
1843 K, x1 = 1	10654 ± 180
1856 K, x1 = 1	10601 ± 180
1857 K, x1 = 0.75	9728 ± 300
1878 K, x1 = 1	10558 ± 180
1889 K, x1 = 1	10592 ± 180
1890 K, x1 = 1	10575 ± 180
1917 K, x1 = 1	10529 ± 180
1935 K, x1 = 1	10478 ± 180
1951 K, x1 = 1	10465 ± 180

[Pd] [palladium] + [Ni]
[2]
Conditions	mass density
1474 K, x1 = 0.25	8842 ± 260 kg/m3
1480 K, x1 = 0.5	9527 ± 500 kg/m3
1488 K, x1 = 0.5	9518 ± 500 kg/m3
1510 K, x1 = 0.25	8793 ± 260 kg/m3
1513 K, x1 = 0.5	9495 ± 500 kg/m3
1549 K, x1 = 0.5	9457 ± 490 kg/m3 and 9456 ± 490 kg/m3
1551 K, x1 = 0.25	8757 ± 260 kg/m3
1563 K, x1 = 0.75	10175 ± 300 kg/m3
1586 K, x1 = 0.5	9422 ± 490 kg/m3
1589 K, x1 = 0.75	10157 ± 300 kg/m3
1598 K, x1 = 0.75	10153 ± 300 kg/m3
1611 K, x1 = 0.25	8707 ± 250 kg/m3
1619 K, x1 = 0.75	10117 ± 300 kg/m3
1630 K, x1 = 0.5	9386 ± 490 kg/m3
1653 K, x1 = 0.75	10089 ± 300 kg/m3
1668 K, x1 = 0.25	8661 ± 250 kg/m3
1695 K, x1 = 0.5	9341 ± 490 kg/m3
1701 K, x1 = 0.75	10023 ± 300 kg/m3
1757 K, x1 = 0.25	8586 ± 250 kg/m3
1770 K, x1 = 0.5	9275 ± 490 kg/m3
1774 K, x1 = 0.75	9966 ± 300 kg/m3
1790 K, x1 = 1	10670 ± 170 kg/m3
1795 K, x1 = 1	10672 ± 170 kg/m3
1796 K, x1 = 1	10652 ± 170 kg/m3
1802 K, x1 = 1	10686 ± 170 kg/m3
1809 K, x1 = 1	10670 ± 170 kg/m3
1820 K, x1 = 1	10677 ± 180 kg/m3
1831 K, x1 = 1	10627 ± 180 kg/m3
1835 K, x1 = 0.75	9929 ± 300 kg/m3
1843 K, x1 = 1	10654 ± 180 kg/m3
1856 K, x1 = 1	10601 ± 180 kg/m3
1859 K, x1 = 0.5	9186 ± 480 kg/m3
1870 K, x1 = 0.25	8503 ± 250 kg/m3
1878 K, x1 = 1	10558 ± 180 kg/m3
1889 K, x1 = 1	10592 ± 180 kg/m3
1890 K, x1 = 1	10575 ± 180 kg/m3
1905 K, x1 = 0.75	9819 ± 290 kg/m3
1917 K, x1 = 1	10529 ± 180 kg/m3
1935 K, x1 = 1	10478 ± 180 kg/m3
1951 K, x1 = 1	10465 ± 180 kg/m3
